These are literature values, as cited in patent publication US20110251239A1, “COMBINATION THERAPY FOR THE TREATMENT OF DEMENTIA” (EISAI INC., priority 2010, published 2011).

Data set [1] deals with CYP450 enzymes (CYP1A2, -2A6, -2C9, -2D6, -2E1, -3A4).
Data set [2] deals with cytochrome P450 isozymes CYP1A2, CYP2C9, CYP2E1 and CYP3A4/5.

For the compound `CC12CC3CC(C)(C1)CC(N)(C3)C2` [memantine, 1-amino-3,5-dimethyl adamantane], the “inhibition of CYP450 enzymes” value in data set [1] was “minimal inhibition”. Also, the “induction of cytochrome P450 isozymes” value in data set [2] is “does not induce”.
